Reference: PubChem BioAssay AID2060886 (Molecular Pharmacology Branch, DTP, NCI, 2025)

Test system: 653999-131-R-J2-PDC complex spheroids, growth inhibition
Test: Anticancer human tumor 653999-131-R-J2-PDC patient-derived lung adenocarcinoma cell line growth inhibition [RAS]
Settings: for IC50: curve of first compound; for viability, T/C: stronger effect = lower value
Description: RAS pathway inhibitors in Combinations in Complex Spheroids
A high-throughput screen of multi-cell type tumor spheroids was designed to identify active combinations of RAS pathway inhibitors and targeted small molecules. Complex spheroids include a stromal component modeled by human endothelial cells (HUVEC) and fibroblasts modeled by human mesenchymal stem cells (MSCs). The concentration ranges selected for each drug and investigational agent were based upon clinically achievable concentrations if the clinical Cmax of the agent was known.
Compounds. The drugs and investigational agents: abemaciclib (NSC768073), cobimetinib (NSC768068), divarasib (GDC6063, NSC841802), docetaxel (NSC628503), GDC-1971 (RLY-1971, NSC841576), gemcitabine (NSC613327), inavolisib (NSC800729), ipatasertib (NSC767898), KB-0742 (NSC834161), MRTX-1133 (NSC836407), osimertinib (NSC779217), RMC-4630 (NSC839698), RMC-6236 (NSC851965), RMC-6291 (NSC852671), Ro-3306 (NSC812927), sapanisertib (NSC764658), SN-38 (NSC673596), staurosporine (NSC755774), SY5609 (NSC837396), and tovorafenib (DAY101, NSC766906), were obtained from the National Cancer Institute (NCI) Developmental Therapeutics Program Chemical Repository. The FDA-approved anticancer drug set is available from the NCI Developmental Therapeutics Program. […] The stock solutions were prepared in dimethyl sulfoxide (DMSO, Sigma-Aldrich, St. Louis, MO, cat. D2650) at 800-fold the tested concentration and stored at -70 degrees C prior to their use. All drugs and investigational agents were tested over a range starting from a high concentration at or near the clinical Cmax and decreasing in half-log increments. If the clinical Cmax for an agent had not been determined, the highest concentration tested was 10 microM.
Cell Culture. All cells were maintained in an incubator at 37 degrees C and 5% CO2 with 95% humidity. The PDC lines were cultured according to standard operating procedures established by the NCI PDMR. All PDCs were thawed and cultured in Matrigel-coated flasks prepared with a working solution of 1X Ham's F-12 nutrient mix, without supplementation (Invitrogen, Waltham, MA, cat. 11765054), 100 U/mL penicillin-streptomycin (Invitrogen, cat. 15140122), and 2.5% Matrigel (Corning Inc., Corning, NY, cat. 354248) for the first three passages. The 362531-283-R-J2-PDC and 782815-120-R-J1-PDC lines were cultured in 6C/Colon 1B media, which includes advanced DMEM/F-12 (Thermo Fisher Scientific, cat. 12634028), 10 mM HEPES (Thermo Fisher Scientific, cat. 15630080), 1X GlutaMAX supplement (Thermo Fisher Scientific, cat. 35050061), 0.1 mg/mL primocin (InvivoGen, San Diego, CA, cat. ant-pm-2), 10% defined fetal bovine serum, heat inactivated (HyClone Laboratories Inc., Logan, UT, cat. SH30070.03HI), 50% L-WRN conditioned media (ATCC, cat. CRL-3276), 1.25 mM N-Acetyl-L-cysteine (Sigma-Aldrich, cat. A9165), 10 mM nicotinamide (Sigma-Aldrich, cat. N0636), 1X B-27 supplement (Thermo Fisher Scientific, cat. 17504044), 1X N-2 supplement (Thermo Fisher Scientific, cat. 17502048), 50 ng/mL human EGF (Thermo Fisher Scientific, cat. PHG0311), and 10 microM Y-27632 dihydrochloride (Tocris Bioscience, cat. 1254). The K12877-001-R-J1-PDC line was cultured in 6I media, which includes all 6C/Colon 1B media plus 10 ng/mL human FGF-10 (PeproTech, cat. 100-26), 1 ng/mL human FGF-2 (PeproTech, cat. 100-18B), 1 µM prostaglandin E2 (Tocris Bioscience, cat. 2296), […] hydrocortisone (Sigma-Aldrich, cat. H4001), and […] bovine insulin (Sigma-Aldrich, cat. I6634). The K86415-001-R-J1-PDC line was cultured in 6D media, which includes all 6C/Colon 1B media components minus the L-WRN conditioned media. The 485176-168-R4-J1-PDC was cultured in PANC media, which includes all 6C/Colon 1B media plus 100 ng/mL human FGF-10 (PeproTech, cat. 100-26), 500 nM SB-431542 (Selleckchem, cat. S1067), and 10 nM gastrin (Tocris Bioscience, cat. 3006). […]
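Note: spheroids exposed to the agents for seven days before the readout.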

Compound CC(C)NCC(C(=O)N1CCN(c2ncnc3c2C(C)CC3O)CC1)c1ccc(Cl)cc1 (centres undefined) + CCn1c(-c2cc(N3CCN(C)CC3)cnc2C(C)OC)c2c3cc(ccc31)-c1csc(n1)CC(NC(=O)C1CC1C)C(=O)N1CCCC(N1)C(=O)OCC(C)(C)C2 has an IC50 (second compound 0.000949 µM) of 649 nM, an IC50 (second compound 0.003 µM) of 190 nM and an IC50 (second compound 0.00949 µM) of under 31.6 nM. The IC50 (second compound 0.03 µM) was under 31.6 nM, the IC50 (second compound 0.0949 µM) was under 31.6 nM and the IC50 (second compound 0.3 µM) was under 31.6 nM. For the same compound, the viability, T/C (second compound 0.000949 µM, first compound 0.0316 µM) was 79.2%, the viability, T/C (second compound 0.000949 µM, first compound 0.1 µM) was 89.7% and the viability, T/C (second compound 0.000949 µM, first compound 0.316 µM) was 61.1%. The viability, T/C (second compound 0.000949 µM, first compound 1 µM) was 43.9%, the viability, T/C (second compound 0.000949 µM, first compound 3.16 µM) was 26.6% and the viability, T/C (second compound 0.000949 µM, first compound 10 µM) was 26.9%. For the same compound, the viability, T/C (second compound 0.003 µM, first compound 0.0316 µM) was 72.5%, the viability, T/C (second compound 0.003 µM, first compound 0.1 µM) was 52.9% and the viability, T/C (second compound 0.003 µM, first compound 0.316 µM) was 50.8%. It also gave a viability, T/C (second compound 0.003 µM, first compound 1 µM) of 29.6%, a viability, T/C (second compound 0.003 µM, first compound 3.16 µM) of 26.6% and a viability, T/C (second compound 0.003 µM, first compound 10 µM) of 20.4%. It also gave a viability, T/C (second compound 0.00949 µM, first compound 0.0316 µM) of 49.7%, a viability, T/C (second compound 0.00949 µM, first compound 0.1 µM) of 39.6% and a viability, T/C (second compound 0.00949 µM, first compound 0.316 µM) of 38.4%. The viability, T/C (second compound 0.00949 µM, first compound 1 µM) was 28.8%, the viability, T/C (second compound 0.00949 µM, first compound 3.16 µM) was 16.4% and the viability, T/C (second compound 0.00949 µM, first compound 10 µM) was 14.4%. It also gave a viability, T/C (second compound 0.03 µM, first compound 0.0316 µM) of 34.2%, a viability, T/C (second compound 0.03 µM, first compound 0.1 µM) of 36.5% and a viability, T/C (second compound 0.03 µM, first compound 0.316 µM) of 23.9%. The viability, T/C (second compound 0.03 µM, first compound 1 µM) was 18.6%, the viability, T/C (second compound 0.03 µM, first compound 3.16 µM) was 10.3% and the viability, T/C (second compound 0.03 µM, first compound 10 µM) was 9.69%. For the same compound, the viability, T/C (second compound 0.0949 µM, first compound 0.0316 µM) was 27.3%, the viability, T/C (second compound 0.0949 µM, first compound 0.1 µM) was 23.8% and the viability, T/C (second compound 0.0949 µM, first compound 0.316 µM) was 18.5%. It also gave a viability, T/C (second compound 0.0949 µM, first compound 1 µM) of 13.7%, a viability, T/C (second compound 0.0949 µM, first compound 3.16 µM) of 9.85% and a viability, T/C (second compound 0.0949 µM, first compound 10 µM) of 5.97%. The viability, T/C (second compound 0.3 µM, first compound 0.0316 µM) was 24%, the viability, T/C (second compound 0.3 µM, first compound 0.1 µM) was 20.4% and the viability, T/C (second compound 0.3 µM, first compound 0.316 µM) was 20.9%. It also gave a viability, T/C (second compound 0.3 µM, first compound 1 µM) of 14.7%, a viability, T/C (second compound 0.3 µM, first compound 3.16 µM) of 8.46% and a viability, T/C (second compound 0.3 µM, first compound 10 µM) of 5.88%.
CCC(CC)c1cc(NC2CCC(N)C2)n2nccc2n1 (centres undefined) + C#Cc1c(F)ccc2cc(O)cc(-c3ncc4c(N5CC6CCC(C5)N6)nc(OCC56CCCN5CC(F)C6)nc4c3F)c12 was tested, and the IC50 (second compound 0.0316 µM) was 2070 nM, the IC50 (second compound 0.1 µM) was 1810 nM and the IC50 (second compound 0.316 µM) was 1580 nM. It also gave an IC50 (second compound 1 µM) of 1290 nM, an IC50 (second compound 3.16 µM) of 31.6 nM and an IC50 (second compound 10 µM) of under 31.6 nM. It also gave a viability, T/C (second compound 0.0316 µM, first compound 0.0316 µM) of 91.1%, a viability, T/C (second compound 0.0316 µM, first compound 0.1 µM) of 110% and a viability, T/C (second compound 0.0316 µM, first compound 0.316 µM) of 84.8%. For the same compound, the viability, T/C (second compound 0.0316 µM, first compound 1 µM) was 105%, the viability, T/C (second compound 0.0316 µM, first compound 3.16 µM) was 15.3% and the viability, T/C (second compound 0.0316 µM, first compound 10 µM) was 28.7%. It also gave a viability, T/C (second compound 0.1 µM, first compound 0.0316 µM) of 85.2%, a viability, T/C (second compound 0.1 µM, first compound 0.1 µM) of 101% and a viability, T/C (second compound 0.1 µM, first compound 0.316 µM) of 93.1%. The viability, T/C (second compound 0.1 µM, first compound 1 µM) was 80.6%, the viability, T/C (second compound 0.1 µM, first compound 3.16 µM) was 14.2% and the viability, T/C (second compound 0.1 µM, first compound 10 µM) was 28.3%. It also gave a viability, T/C (second compound 0.316 µM, first compound 0.0316 µM) of 71.7%, a viability, T/C (second compound 0.316 µM, first compound 0.1 µM) of 75.5% and a viability, T/C (second compound 0.316 µM, first compound 0.316 µM) of 75.4%. It also gave a viability, T/C (second compound 0.316 µM, first compound 1 µM) of 72.3%, a viability, T/C (second compound 0.316 µM, first compound 3.16 µM) of 14.8% and a viability, T/C (second compound 0.316 µM, first compound 10 µM) of 17.3%. The viability, T/C (second compound 1 µM, first compound 0.0316 µM) was 56.2%, the viability, T/C (second compound 1 µM, first compound 0.1 µM) was 57% and the viability, T/C (second compound 1 µM, first compound 0.316 µM) was 68.7%. It also gave a viability, T/C (second compound 1 µM, first compound 1 µM) of 59.2%, a viability, T/C (second compound 1 µM, first compound 3.16 µM) of 10.7% and a viability, T/C (second compound 1 µM, first compound 10 µM) of 25.3%. The viability, T/C (second compound 3.16 µM, first compound 0.0316 µM) was 47.2%, the viability, T/C (second compound 3.16 µM, first compound 0.1 µM) was 45% and the viability, T/C (second compound 3.16 µM, first compound 0.316 µM) was 49.3%. It also gave a viability, T/C (second compound 3.16 µM, first compound 1 µM) of 39.4%, a viability, T/C (second compound 3.16 µM, first compound 3.16 µM) of 16% and a viability, T/C (second compound 3.16 µM, first compound 10 µM) of 27.7%. It also gave a viability, T/C (second compound 10 µM, first compound 0.0316 µM) of 36.2%, a viability, T/C (second compound 10 µM, first compound 0.1 µM) of 33.5% and a viability, T/C (second compound 10 µM, first compound 0.316 µM) of 20.9%. The viability, T/C (second compound 10 µM, first compound 1 µM) was 31.6%, the viability, T/C (second compound 10 µM, first compound 3.16 µM) was 9.65% and the viability, T/C (second compound 10 µM, first compound 10 µM) was 13.1%.
